Legend:
Assay type in all cases: cell-based, human
[1] = system: patient-derived organoids (lung cancer); assay: Patient tumor tissue-derived organoid assay (area, caspase activity)
Method: Next, drug efficacy in patient tumor tissue-derived organoids was determined. Approximately 5000 cells/sample from 2 surgical samples were seeded in an ultra-low attachment plate and incubated at 37° C. […] In one of the patient-derived organoids, cisplatin treatment alone decreased spheroid area and increased apoptosis as measured by green intensity (FIG. 11D). […] Indeed, by 72 hours carfilzomib at a concentration of 2.5 μM induced 5-fold increase in caspase activity compared to cisplatin alone but there was not much change in the spheroid area (FIGS. 11E-11F). Thus, no additive effect was apparent in this patient sample. […] The efficacy of ITGB4 antibody in disrupting organoid growth and inducing apoptosis was also tested.

H1993 cells = assay: IncuCyte cell proliferation and caspase-3/7 apoptosis assay
Method: (§1) Cell proliferation and apoptosis assay. Cell proliferation assays were performed using cell lines stably transfected with NucLight Red Lentivirus (Essen Bioscience) to accurately visualize and count the nucleus of a single cell. Cells were seeded on a 96-well plate and allowed to adhere for 24 hours. Test compounds were added at indicated concentrations. Caspase-3/7 Green Apoptosis Reagent (Essen Bioscience) was also added as a green fluorescent indicator of caspase-3/7-mediated apoptotic activity. To monitor cell proliferation and apoptosis over time, the plate was placed in the IncuCyte S3 Live-Cell Analysis System (Essen BioScience) and images were acquired every 2 hours. Data analysis was generated by the IncuCyte software using a red fluorescence mask to accurately count each cell nucleus and a green fluorescence mask to measure apoptosis over time.
(§2) To determine whether the inhibition in cell proliferation associated with ITGB4 knockdown was due to enhanced apoptosis or reduced cell division (cytostatic), the Essen Bioscience Caspase-3/7 Green apoptosis assay in live cells was conducted. The NucView™[…], a DNA intercalating dye was used to enable quantification of apoptosis over time. The dye is impermeable and non-toxic to cells but once the cell membrane is permeabilized by caspase-3/7, the dye enters the cell and gets activated due to change in pH leading to the generation of green fluorescence that is then detected in real time and quantified using the IncuCyte System (FIG. 4B).
To address this, H1993 and H2009 cells were treated with cisplatin for 3 days and the changes were analyzed by immunoblotting. […] Next, H1993 and H2009 cells were transiently transfected with ITGB4 siRNA and 24 hours post-transfection they were treated with 10 μM cisplatin and cell proliferation and caspase activity were determined. […] However, in response to cisplatin in ITGB4 knockdown cells, the fold change dipped to <1, alluding to a cytotoxic effect (FIG. 4C). […] However, cell death was not due to caspase activation but appeared to be due to cell bursting which is seen in anoikis (FIGS. 3K and 3L). […]

H2009 cells = assay: as above; settings: 10 μM cisplatin alone
Method: as §1, §2
To address this, H1993 and H2009 cells were treated with cisplatin for 3 days and the changes were analyzed by immunoblotting. […] Next, H1993 and H2009 cells were transiently transfected with ITGB4 siRNA and 24 hours post-transfection they were treated with 10 μM cisplatin and cell proliferation and caspase activity were determined. […] However, in response to cisplatin in ITGB4 knockdown cells, the fold change dipped to <1, alluding to a cytotoxic effect (FIG. 4C). […] However, cell death was not due to caspase activation but appeared to be due to cell bursting which is seen in anoikis (FIGS. 3K and 3L).

[2] = system: ITGB4, PXN, FAK, MET, γH2AX, cleaved PARP in H1993 cells; assay: Immunoblot; settings: cisplatin 10 μM, 3 days
Method: (§3) West blotting: Cell lysates were prepared with 1×RIPA buffer (MilliporeSigma) and denatured in 1× reducing sample buffer at 95° C. for 5 minutes. Protein samples (15 μg) were run on 4-15% TGX gels (Bio-Rad, Hercules, Calif., USA) and transferred onto nitrocellulose membranes (Bio-Rad). Blots were blocked with 5% non-fat milk in TBS-T for 1 hour at room temperature and probed with primary antibody diluted in 2.5% BSA in TBS-T overnight at 4° C. After three washes with TBS-T, blots were incubated with HRP-conjugated secondary antibodies for 2 hours at room temperature. After three more washes, bands of interest were visualized via chemiluminescence using Western Bright ECL HRP substrate (Advansta, Menlo Park, Calif., USA) and imaged with the ChemiDoc MP imager (Bio-Rad).
(§4) Then a sublethal dose was used to determine the effect of these compounds on ITGB4 and PXN expression and caspase activity (FIG. 9I). […] These eleven compounds were further screened in the cisplatin-resistant cell line H2009. […] Further, carfilzomib was tested in another cisplatin-resistant cell line H1993.

[3] = system: ITGB4, PXN, FAK, p27, phospho-Rb, γH2AX, cleaved PARP in H2009 cells; assay: Immunoblot; settings: cisplatin 10 μM, 3 days
Method: as §3, §4

[4] = system: ITGB4, PXN, USP1, VDAC1, CD133 in patient-derived organoids; assay: Immunoblot of treated patient-derived organoids; settings: 48 hours, printed 2.5 mM and 5 mM
[5] = system: ITGB4 expression in H2009 cells; assay: FACS analysis with ITGB4 antibody after cisplatin; settings: cisplatin for 4 days, FACS on day 5
Method: Fluorescence-activated cell sorting (FACS) and analysis: Cells were trypsinized and resuspended (5 million) in PBS with 2% FBS. Cells were stained with ITGB4 antibody conjugated to Alexa Fluor® 488 (5 μl/1 million cells) (R&D Systems, Minneapolis, Minn., USA) and Propidium Iodide Ready Flow™ Reagent (1 drop/1 million cells) (Invitrogen) for 30 minutes at 4° C. The Analytical Cytometry Core Facility at City of Hope carried out and assisted all FACS sorting and analysis experiments. Gates were set to sort cell populations having low 10% and high 10% expression of ITGB4 using the FACSAria™ Fusion (BD Biosciences, San Jose, Calif., USA). Sorted cells were immediately cultured in 12-well plates and treated with cisplatin (1 μM) for 48 hours. Then, equal number of untreated and treated cells were collected and stained with same reagents as above. FACS analysis was performed to determine shifts in cell population using the Attune NxT Flow Cytometer (Invitrogen).
To test the predictions made by the model, H2009 cells were treated with cisplatin for 4 days. On day 5, they were subjected to FACS analysis using an ITGB4 antibody. […] In presence of stress, the cells either increased the expression of ITGB4 or the cells having high ITGB4 get selected (FIG. 13B). […] The cells were then counted, and an equal number of cells were stained with ITGB4 antibody and PI and analyzed by FACS sorting.

## N.N.[Cl][Pt][Cl] [Cisplatin, Cis-diamminedichloroplatinum(II)]
[1]; patient LCSC2
  spheroid area: decreased the spheroid area
[1]; patient LCSC4, cisplatin 5 μM alone, carfilzomib 2.5 μM alone
  organoid size: decreased the size of the organoid
[1]; second patient (LCSC2) organoids, drug alone
  caspase activity: did not induce any caspase activity
H1993 cells; 10 μM cisplatin alone
  caspase activity: did not induce caspase activity
H1993 cells; ITGB4 knockdown or 10 μM cisplatin alone, cytostatic
  fold change in cell count: ~1 fold
H2009 cells
  apoptosis: induced apoptosis in H2009 cell by 72 hours
[2]
  protein expression by immunoblot: reduction in the expression of phosphorylated as well as total FAK and PXN
[3]
  protein expression by immunoblot: reduction in the expression of phosphorylated as well as total FAK and PXN
[4]
  protein expression by immunoblot: minimal effect
[5]
  decrease in ITGB4 low-expressing cells compared to untreated: 15%

Source: patent publication US20210283211A1, “COMPOSITIONS AND METHODS OF ALLEVIATING RESISTANCE TO CHEMOTHERAPY” (CITY OF HOPE, priority 2019, published 2021)
